Laboratory results reported in publication PMC8880268, “Magnolol and Luteolin Inhibition of α-Glucosidase Activity: Kinetics and Type of Interaction Detected by In Vitro and In Silico Studies” (Pharmaceuticals, 2022).
“Also recorded” adds a separate entry of the source. Like-named read-outs stand apart in the source and are kept apart here.

What was measured:
[1] = target: T1, α-glucosidase (Saccharomyces cerevisiae, UniProt P38158); test: Yeast α-glucosidase inhibitory assay (pNPG substrate, absorbance 405 nm); type: biochemical; details: for reversibility of inhibition: plots v vs. [α-glucosidase] at different inhibitor concentrations; for IC50: 2 mM pNPG
T1 construct: purchased Merck KGaA, Darmstadt, Germany
Protocol: α-Glucosidase inhibitory activity was determined according to a previous method. Briefly, 0.1 mM PBS (pH 6.8) was used to dissolve α-glucosidase and pNPG. In detail, 80 μL of PBS or 80 μL of test sample were added to 96-well plates. Successively, 20 μL of enzyme (0.025–0.125 µM) were added to each well. Magnolol (10–100 μM) and luteolin (5–50 μM) were prepared in DMSO (<1% v/v). […] Each sample was incubated with α-glucosidase for 10 min at 37 °C. The reaction started by adding 200 μL of pNPG (2 mM). The absorbance values were detected at 405 nm for 60 min, using a PerkinElmer Victor Nivo microplate spectrophotometer (Waltham, MA, USA). The α-glucosidase activity in the absence of inhibitors was defined as 100%. The half-maximal inhibitory concentration (IC50) was estimated by plot of relative enzymatic activity vs. inhibitor concentration.

[2] = target: T1, α-glucosidase; test: Kinetic analysis of yeast α-glucosidase inhibition (Michaelis–Menten and Lineweaver–Burk plots); type: biochemical; details: for type of inhibition: Michaelis–Menten and Lineweaver–Burk plots; for Kcat of α-glucosidase: 0.075 µM α-glucosidase
Protocol: The type of enzyme inhibition exerted by inhibitors was evaluated from kinetic studies using different substrate concentrations (0.25–2.5 mM pNPG) applying Michaelis–Menten and Lineweaver–Burk plots. Inhibition constants (Ki) were determined by plots of the Y-intercept of the Lineweaver–Burk plot vs. inhibitor concentration.

[3] = target: T1, α-glucosidase; test: Inactivation kinetics, time course of α-glucosidase activity; type: biochemical; details: enzyme 0.075 µM, pNPG 2 mM
Protocol: The enzyme and substrate concentrations were 0.075 µM and 2 mM, respectively.

[4] = target: T1, α-glucosidase; test: Fluorescence quenching analysis and thermodynamic parameters; type: binding; details: for ΔG° (free energy change) / ΔH° (enthalpy change) / ∆S° (entropy change): Van ’t Hoff equation; for Ksv (Stern–Volmer quenching constant): pH 6.8, α-glucosidase 0.35 µM; for ΔH° (enthalpy change) / ∆S° (entropy change): 298–310 K; for number of binding sites: no temperature stated; for Kd: read-out: Ka (binding constant) (converted)
Protocol: The interaction of inhibitors with α-glucosidase was studied using the fluorescence quenching method. […] Measurements were made in the emission range of 300–450 nm, with an excitation of 280 nm, after 10 min of stabilization. The fluorescent spectra of α-glucosidase (0.35 µM) and each inhibitor (0–1.0 µM) were carried out at three different temperatures (298, 304, and 310 K) and the bandwidths were set at 5 nm for both emission and excitation slits. For each sample, three fluorescence spectra were acquired, and the blank was subtracted. The compound quenching mechanism was assessed using the Stern–Volmer equation: F0 / F = 1 + Ksv[Q] = 1 + Kq^.τo[Q], where F0 and F are the fluorescence measure in absence and in presence of different concentrations of quencher, respectively; Ksv is the Stern–Volmer quenching constant; Kq is the coefficient of quencher rate coefficient; τ0 is the life time of the excited state; and [Q] is the concentration of the quencher.
Further elaboration of the equilibrium within the free and bound molecules can be achieved through the analysis of the fluorescence emission data utilizing the following equation: log (F0 − F) / F = log Ka + n log [Q], which obtains the binding constant (Ka) and the number of binding sites per protein (n) for the enzyme-inhibitor system.
Thermodynamic spontaneity is an important factor in the study of protein-ligand interaction. A system tends not only toward a lower energy state (enthalpy, ΔH), but also according to a state of disorder (entropy, ΔS). Thermodynamic parameters were obtained according to the Van ’t Hoff equation and the plot of “log Ka vs. 1/T”. The trade-off between enthalpy (ΔH°) and entropy (ΔS°) is used to obtain the standard free energy variation (ΔG°).

[5] = target: T1, α-glucosidase; test: Non-radiation energy transfer (Förster resonance energy transfer) distance; type: binding; details: room temperature, pH 6.8, 0.35 µM
Protocol: The distance between magnolol and α-glucosidase was calculated according to the theory of Förster resonance energy transfer. To calculate the distance (r) between the donor and the acceptor, the emission wavelength of α-glucosidase was overlapped with the absorption band of the inhibitor. The fluorescence spectrum and the UV absorption spectrum of the inhibitor were collected in the wavelength range of 300–500 nm, at room temperature, pH 6.8, and at a concentration of 0.35 µM.

[6] = target: T1, α-glucosidase; test: Synchronous fluorescence spectra; details: pH 6.8, 298 K
Source text: The application of this method allows the identification of conformational changes in proteins according to the spectroscopic behavior of the tyrosine and tryptophan residues. Synchronous fluorescence spectra were collected in the emission range of 260–320 nm. The difference between excitation and emission wavelength (Δλ) was established at 15 nm (tyrosine residues) or at 60 nm (tryptophan residues).

[7] = tested on: α-glucosidase; details: cited from earlier work; for type of inhibition (inhibition kinetic assays): ref 19; for IC50: studied with 0.5 µM of α-glucosidase ref 19

T1 sequence (P38158 whole entry): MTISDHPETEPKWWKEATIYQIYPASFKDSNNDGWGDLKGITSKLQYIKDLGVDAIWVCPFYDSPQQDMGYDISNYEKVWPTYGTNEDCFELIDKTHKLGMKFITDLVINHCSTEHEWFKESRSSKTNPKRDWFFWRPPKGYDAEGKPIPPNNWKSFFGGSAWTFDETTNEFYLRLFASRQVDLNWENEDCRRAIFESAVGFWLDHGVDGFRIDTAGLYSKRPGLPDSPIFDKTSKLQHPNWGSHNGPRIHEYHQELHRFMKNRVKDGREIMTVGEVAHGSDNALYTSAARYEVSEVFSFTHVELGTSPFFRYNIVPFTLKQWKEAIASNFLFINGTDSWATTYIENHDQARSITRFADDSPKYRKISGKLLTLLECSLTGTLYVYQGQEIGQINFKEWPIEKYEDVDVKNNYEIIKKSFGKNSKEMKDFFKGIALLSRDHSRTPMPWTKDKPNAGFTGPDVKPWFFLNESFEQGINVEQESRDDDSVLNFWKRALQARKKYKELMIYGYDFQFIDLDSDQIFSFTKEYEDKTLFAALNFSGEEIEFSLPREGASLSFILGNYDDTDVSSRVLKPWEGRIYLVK

C[C@H]1O[C@H](O[C@H]2[C@H](O)[C@@H](O)[C@@H](O[C@H]3[C@H](O)[C@@H](O)C(O)O[C@@H]3CO)O[C@@H]2CO)[C@H](O)[C@@H](O)[C@@H]1N[C@H]1C=C(CO)[C@@H](O)[C@H](O)[C@H]1O (stereo partly shown) [Acarbose, reference compound]
reversibility of inhibition [1]: reversible inhibition | type of inhibition [2]: competitive inhibitor | Kcat of α-glucosidase ([2]; inhibitor 200 µM): 2.83 ± 0.33 s⁻¹ | Vmax of α-glucosidase ([2]; inhibitor 200 µM, converted using the Lambert–Beer relationship): 12.7 ± 1.50 µM/min | Kcat of α-glucosidase ([2]; inhibitor 400 µM): 2.87 ± 0.39 s⁻¹ | Vmax of α-glucosidase ([2]; inhibitor 400 µM, converted using the Lambert–Beer relationship): 12.9 ± 1.70 µM/min | Kcat of α-glucosidase ([2]; inhibitor 800 µM): 2.77 ± 0.44 s⁻¹ | Vmax of α-glucosidase ([2]; inhibitor 800 µM, converted using the Lambert–Beer relationship): 12.4 ± 2.00 µM/min | Vmax of α-glucosidase ([2]; inhibitor 1600 µM): 0.120 ± 0.016 ΔΟD/min | Kcat of α-glucosidase ([2]; inhibitor 1600 µM): 2.66 ± 0.36 s⁻¹ | Vmax of α-glucosidase ([2]; inhibitor 1600 µM, converted using the Lambert–Beer relationship): 12.0 ± 1.60 µM/min | Kcat of α-glucosidase ([2]; inhibitor 3200 µM): 2.79 ± 0.67 s⁻¹ | Vmax of α-glucosidase ([2]; inhibitor 3200 µM, converted using the Lambert–Beer relationship): 12.5 ± 3.00 µM/min | Kcat of α-glucosidase ([2]; inhibitor 4000 µM): 3.12 ± 1.04 s⁻¹ | Vmax of α-glucosidase ([2]; inhibitor 4000 µM, converted using the Lambert–Beer relationship): 14.1 ± 4.70 µM/min | Inactivation rate constant K ([3]; inhibitor 200 µM): 2.76 ± 0.07 10^−4 s^−1 | Inactivation rate constant K ([3]; inhibitor 400 µM): 2.81 ± 0.07 10^−4 s^−1 | Inactivation rate constant K ([3]; inhibitor 800 µM): 2.83 ± 0.05 10^−4 s^−1 | Inactivation rate constant K ([3]; inhibitor 1600 µM): 2.84 ± 0.03 10^−4 s^−1 | Inactivation rate constant K ([3]; inhibitor 3200 µM): 2.85 ± 0.01 10^−4 s^−1 | Inactivation rate constant K ([3]; inhibitor 4000 µM): 2.85 ± 0.09 10^−4 s^−1 | Kq (bimolecular quenching constant) ([4]; 298 K): 3.75 ± 0.041 10^13 M^−1 s^−1 | n (number of binding sites) ([4]; 298 K): 1.77 | ΔG° (free energy change) ([4]; 298 K): 0.621 kcal/mol | Ksv (Stern–Volmer quenching constant) ([4]; 298 K): 3.75 ± 0.04 10^5 M^−1 | ΔH° (enthalpy change) [4]: -10.88 kcal/mol | ∆S° (entropy change) [4]: −161.47 J mol^−1K^−1 | Kq (bimolecular quenching constant) ([4]; 304 K): 1.89 ± 0.014 10^13 M^−1 s^−1 | n (number of binding sites) ([4]; 304 K): 1.38 | ΔG° (free energy change) ([4]; 304 K): 0.853 kcal/mol | Ksv (Stern–Volmer quenching constant) ([4]; 304 K): 1.89 ± 0.01 10^5 M^−1 | Kq (bimolecular quenching constant) ([4]; 310 K): 1.80 ± 0.020 10^13 M^−1 s^−1 | n (number of binding sites) ([4]; 310 K): 1.36 | ΔG° (free energy change) ([4]; 310 K): 1.09 kcal/mol | Ksv (Stern–Volmer quenching constant) ([4]; 310 K): 1.80 ± 0.02 10^5 M^−1 | number of binding sites [4]: approximately 1

C=CCc1ccc(O)c(-c2cc(CC=C)ccc2O)c1 [Magnolol, 5,5′-diallyl-biphenyl-2,2′-diol]
IC50 ([1]; IC50, α-glucosidase 0.025 × 10^−6 M): 28.3 ± 10.7 µM | IC50 ([1]; IC50, α-glucosidase 0.05 × 10^−6 M): 28.5 ± 11 µM | IC50 ([1]; IC50, α-glucosidase 0.075 × 10^−6 M): 32.6 ± 10.5 µM | IC50 ([1]; IC50, α-glucosidase 0.125 × 10^−6 M): 35.5 ± 10.2 µM | reversibility of inhibition [1]: reversible inhibition | IC50 ([1]; −Log IC50, α-glucosidase 0.05 × 10^−6 M): 28.2 µM | type of inhibition [2]: mixed-type antagonism | type of inhibition ([2]; listed as magnolol): mixed-type inhibition; also recorded: mixed-type inhibitor; also recorded: reversible mixed-type interaction | Kcat of α-glucosidase ([2]; inhibitor 10 µM): 3.59 ± 0.17 s⁻¹ | Vmax of α-glucosidase ([2]; inhibitor 10 µM, converted using the Lambert–Beer relationship): 16.2 ± 0.80 µM/min | Kcat of α-glucosidase ([2]; inhibitor 25 µM): 3.29 ± 0.15 s⁻¹ | Vmax of α-glucosidase ([2]; inhibitor 25 µM, converted using the Lambert–Beer relationship): 14.8 ± 0.70 µM/min | Kcat of α-glucosidase ([2]; inhibitor 50 µM): 2.86 ± 0.13 s⁻¹ | Vmax of α-glucosidase ([2]; inhibitor 50 µM, converted using the Lambert–Beer relationship): 12.9 ± 0.60 µM/min | Kcat of α-glucosidase ([2]; inhibitor 100 µM): 2.22 ± 0.29 s⁻¹ | Vmax of α-glucosidase ([2]; inhibitor 100 µM, converted using the Lambert–Beer relationship): 10.0 ± 1.30 µM/min | Inactivation rate constant K ([3]; inhibitor 10 µM): 2.78 ± 0.05 10^−4 s^−1 | Inactivation rate constant K ([3]; inhibitor 25 µM): 2.81 ± 0.03 10^−4 s^−1 | Inactivation rate constant K ([3]; inhibitor 50 µM): 2.81 ± 0.01 10^−4 s^−1 | Inactivation rate constant K ([3]; inhibitor 100 µM): 2.85 ± 0.08 10^−4 s^−1 | Kq (bimolecular quenching constant) ([4]; 298 K): 3.90 ± 0.007 10^13 M^−1 s^−1 | n (number of binding sites) ([4]; 298 K): 0.39 | Ksv (Stern–Volmer quenching constant) ([4]; 298 K): 3.89 ± 0.01 10^5 M^−1 | Kd ([4]; 298 K): 3.37 µM | ΔH° (enthalpy change) [4]: 9.376 kcal/mol | ∆S° (entropy change) [4]: 121.83 J mol^−1K^−1 | Kq (bimolecular quenching constant) ([4]; 304 K): 4.22 ± 0.011 10^13 M^−1 s^−1 | n (number of binding sites) ([4]; 304 K): 0.42 | ΔG° (free energy change) ([4]; 304 K): -0.523 kcal/mol | Ksv (Stern–Volmer quenching constant) ([4]; 304 K): 4.22 ± 0.01 10^5 M^−1 | Kd ([4]; 304 K): 2.2 µM | Kq (bimolecular quenching constant) ([4]; 310 K): 5.30 ± 0.022 10^13 M^−1 s^−1 | n (number of binding sites) ([4]; 310 K): 0.65 | ΔG° (free energy change) ([4]; 310 K): -0.349 kcal/mol | Ksv (Stern–Volmer quenching constant) ([4]; 310 K): 5.30 ± 0.02 10^5 M^−1 | Kd ([4]; 310 K): 1.82 µM | fluorescence quenching mechanism ([4]; based on Ksv and Kq values): static-dynamic quenching process | number of binding sites [4]: ~0.6 | calculated distance between inhibitor and α-glucosidase [5]: 2.06 nm | shift of synchronous fluorescence maximum ([6]; ∆λ = 15 nm (tyrosine residues)): red shift from 286 to 290 | shift of synchronous fluorescence maximum ([6]; ∆λ = 60 nm (tryptophan residues)): no modification

O=c1c(O)c(-c2ccc(O)cc2)oc2cc(O)cc(O)c12 [compound 1, kaempferol]
type of inhibition (inhibition kinetic assays) [7]: non-competitive inhibitors

O=c1c(O)c(-c2ccc(O)c(O)c2)oc2cc(O)cc(O)c12 [compound 2, quercetin]
type of inhibition (inhibition kinetic assays) [7]: non-competitive inhibitors

O=C(OC1C(O)C(CO)OC(Oc2c(-c3ccc(O)c(O)c3)oc3cc(O)cc(O)c3c2=O)C1O)c1cc(O)c(O)c(O)c1 (stereo not shown) [compound 3]
type of inhibition (inhibition kinetic assays) [7]: non-competitive | IC50 [7]: 0.97 µM

O=C(OC[C@@H]1O[C@@H](Oc2c(-c3ccc(O)c(O)c3)oc3cc(O)cc(O)c3c2=O)[C@@H](O)[C@H](O)[C@@H]1O)c1cc(O)c(O)c(O)c1 [compound 4]
type of inhibition (inhibition kinetic assays) [7]: non-competitive inhibitor | IC50 [7]: 1.35 µM

O=C(OC[C@@H]1O[C@@H](Oc2c(-c3ccc(O)c(O)c3)oc3cc(O)cc(O)c3c2=O)[C@@H](O)[C@H](O)[C@H]1O)c1cc(O)c(O)c(O)c1 [compound 5]
type of inhibition (inhibition kinetic assays) [7]: competitive inhibitor | IC50 [7]: 27.8 µM
